The values that follow are results of earlier work, collected in article PMC12308805, “Ultrahigh-Throughput Virtual Screening Strategies against PPI Targets: A Case Study of STAT Inhibitors” (Journal of Chemical Information and Modeling, 2025).

Structures are written as SMILES.

One data set deals with STAT3. To be noted: sheet 6QHD_actives_decoys; retrospective screening set for STAT3 SH2 domain (PDB 6QHD); […]; ref DUD-E; cited from earlier work.
On to `CCOc1ccc(NS(=O)(=O)c2ccc3c(c2)CC(=O)N3)cc1S(=O)(=O)N1CCCC1` [Decoy537], for which the Type entry is given as “Inactive (Decoy)”.

As to `COc1ccc(NS(=O)(=O)c2ccc(OC)c(NS(=O)(=O)c3ccc(C#N)cc3)c2)cc1` [Decoy542], the Type result was “Inactive (Decoy)”.

`COc1ccc(S(=O)(=O)Nc2ccc(S(=O)(=O)Nc3nc(C)cc(C)n3)cc2)cc1F` [Decoy560]: the Type result is on record as “Inactive (Decoy)”.

Consider `COc1ccccc1[C@H](O)CNC(=O)c1cc(NS(=O)(=O)c2cccc([N+](=O)[O-])c2)ccc1O` [Decoy566], for which the Type entry is “Inactive (Decoy)”.

For the compound `O=c1c(C[C@@H](O)CN2CCOCC2)c(O)n(C[C@H](O)CN2CCOCC2)c(=O)n1C[C@H](O)CN1CCOCC1` [Decoy567], the Type result was “Inactive (Decoy)”.

As to `O=c1c(C[C@@H](O)CN2CCOCC2)c(O)n(C[C@@H](O)CN2CCOCC2)c(=O)n1C[C@H](O)CN1CCOCC1` [Decoy568], the Type result was “Inactive (Decoy)”.

The data set is the same for the next values; noted with them: sheet 6QHD_actives_decoys; retrospective screening set for STAT3 SH2 domain (PDB 6QHD); decoys generated with DUD-E and presumed inactive, not tested; ref DUD-E; cited from earlier work.
`CC1(C)CC[C@]2(C(=O)O[C@@H]3O[C@H](CO)[C@@H](O)[C@H](O)[C@H]3O)[C@H](O)C[C@]3(C)C(=CC[C@@H]4[C@@]5(C)CC[C@H](O[C@@H]6OC[C@H](O)[C@H](O)[C@H]6O)[C@@](C)(CO)[C@@H]5CC[C@]43C)[C@@H]2C1` [Decoy535]: the Type entry is “Inactive (Decoy)”.

Consider `CC(C)(C)OC(=O)N[C@H](CSSC[C@@H](NC(=O)OC(C)(C)C)C(=O)OC[C@H]1O[C@H](O)[C@@H](O)[C@@H](O)[C@H]1O)C(=O)OC[C@H]1O[C@H](O)[C@@H](O)[C@@H](O)[C@H]1O` [Decoy536], for which the Type entry is given as “Inactive (Decoy)”.

`COc1ccccc1NS(=O)(=O)c1ccc(O)c(C(=O)OCC(=O)c2ccc3c(c2)NC(=O)CO3)c1` [Decoy538]: the Type result is listed as “Inactive (Decoy)”.

As for `CC1(C)NC(=O)N(C[C@@H](O)COc2ccc(-c3ccc(OC[C@H](O)CN4C(=O)NC(C)(C)C4=O)cc3)cc2)C1=O` [Decoy539], the Type entry is on record as “Inactive (Decoy)”.

Turning to `CCCNC(=O)CN1CCN(c2cc(C(=O)O)c3cc(NS(=O)(=O)c4cccs4)ccc3n2)CC1` [Decoy543], the Type entry is reported as “Inactive (Decoy)”.

On to `CC1=C(/C(O)=N/c2ccc(S(N)(=O)=O)cc2)[C@@H](c2ccco2)C(C#N)=C(SCC(=O)Nc2ccc(F)cc2)N1` [Decoy544], for which the Type entry is “Inactive (Decoy)”.

On to `CC(=O)OC[C@@H]1O[C@H](n2c(=O)[nH]c(=O)c3n[nH]nc32)[C@@H](OC(C)=O)[C@H](OC(C)=O)[C@H]1OC(C)=O` [Decoy545], for which the Type entry is “Inactive (Decoy)”.

Take `O=C(O)CCCNC(=O)C(NC(=O)CCSSCCNC(=O)CCCC[C@@H]1SC[C@@H]2NC(=O)N[C@@H]21)C(=O)NCCCC(=O)O` [Decoy546]: the Type result is “Inactive (Decoy)”.

On to `CO[C@@H]1O[C@@H]2CO[C@@H](c3ccccc3)O[C@H]2[C@H](O[C@@H]2O[C@H](COC(C)=O)[C@H](OC(C)=O)[C@H](OC(C)=O)[C@H]2OC(C)=O)[C@H]1NC(C)=O` [Decoy547], for which the Type result is listed as “Inactive (Decoy)”.

In the case of `O=P(O)(O)CCN1CCCN(CCP(=O)(O)O)CCN(CCP(=O)(O)O)CCCN(CCP(=O)(O)O)CC1` [Decoy548], the Type result was “Inactive (Decoy)”.

On to `COc1ccc(CCC(=O)O)c([C@H](CC(=O)O)C(=O)O)c1OS(=O)(=O)c1ccc(C)cc1` [Decoy549], for which the Type entry is given as “Inactive (Decoy)”.

With `COc1ccc(-n2c(=O)[nH]c3cc([C@@H]4N[C@@H](c5ccc(OC)c(OC)c5)NO4)ccc3c2=O)cc1` [Decoy550], the Type entry is on record as “Inactive (Decoy)”.

Regarding `CCOc1cc(/C=N/N=C2\NC(=O)[C@@H](CC(=O)O)S2)cc(Br)c1OS(=O)(=O)c1ccc(C)cc1` [Decoy551], the Type result is listed as “Inactive (Decoy)”.

Turning to `CCOC(=O)c1ccc(/N=C2\S[C@@H](CC(=O)Nc3ccc(C(=O)OCC)cc3)C(=O)N2CCc2ccc(Cl)cc2)cc1` [Decoy552], the Type entry was “Inactive (Decoy)”.

On to `CCOC(=O)c1ccc(/N=C2\S[C@H](CC(=O)Nc3ccc(C(=O)OCC)cc3)C(=O)N2CCc2ccc(Cl)cc2)cc1` [Decoy553], for which the Type result was “Inactive (Decoy)”.

In the case of `C=CCn1c(SCC(=O)Nc2sc(C(=O)OCC)c(C)c2C(=O)OCC)nc2sc3c(c2c1=O)CCCC3` [Decoy554], the Type entry is listed as “Inactive (Decoy)”.

On to `O=S(=O)(O)c1cc(S(=O)(=O)O)c2c(/N=N/c3ccc([C@H](c4ccc(/N=N/c5ccc(O)cc5)cc4)C4CCCCC4)cc3)c(O)ccc2c1` [Decoy555], for which the Type result is reported as “Inactive (Decoy)”.

For the compound `COc1cc(-c2c(-c3cc(Br)c(O)c(OC)c3)oc(/C=N/NC(=O)C[N+](C)(C)C)c2[N+](=O)[O-])cc(Br)c1[O-]` [Decoy556], the Type result was “Inactive (Decoy)”.

As to `CCCCCCCCCCC/C=C/C(=O)N[C@H]1[C@@H](O[C@H]2O[C@@H](CO)[C@@H](O)[C@@H](O)[C@H]2NC(C)=O)O[C@@H](C[C@H](O)[C@H]2O[C@@H](n3ccc(=O)[nH]c3=O)[C@@H](O)[C@H]2O)[C@@H](O)[C@H]1O` [Decoy557], the Type result is “Inactive (Decoy)”.

For `CCCCCCCCCCC/C=C/C(=O)N[C@@H]1[C@@H](O[C@H]2O[C@@H](CO)[C@@H](O)[C@@H](O)[C@H]2NC(C)=O)O[C@@H](C[C@H](O)[C@H]2O[C@@H](n3ccc(=O)[nH]c3=O)[C@@H](O)[C@H]2O)[C@@H](O)[C@H]1O` [Decoy558], the Type entry is given as “Inactive (Decoy)”.

Take `COc1cc(/C=N/Nc2nnc(SCC(=O)NCCc3ccc(Cl)cc3)n2N)cc(OC)c1OC` [Decoy559]: the Type result is recorded as “Inactive (Decoy)”.

Regarding `CC(=O)N[C@@H](C=O)C[C@@H](O[C@@H]1O[C@H](COC(C)=O)[C@H](OC(C)=O)[C@H](OC(C)=O)[C@H]1OC(C)=O)[C@H](O)[C@H](O)CO` [Decoy561], the Type result is reported as “Inactive (Decoy)”.

For the compound `C=CCOC(=O)c1sc(NC(=O)[C@@H](C)n2c(N)nnc2SCc2ccccc2Cl)nc1C` [Decoy562], the Type result is “Inactive (Decoy)”.

For the compound `Cc1ccc(Nc2cc(C)nc3cc(C(F)(F)F)ccc23)c(Br)c1` [Decoy563], the Type entry is recorded as “Inactive (Decoy)”.

As for `CCCOc1ccc(C(=O)C2=C(O)C(=O)N(CCN3CCOCC3)[C@@H]2c2ccc(O)c(OC)c2)cc1C` [Decoy564], the Type entry was “Inactive (Decoy)”.

`CCCN(C(=O)c1cccc([N+](=O)[O-])c1)[C@H](C(=O)NCS(=O)(=O)c1ccc(C)cc1)c1ccc(O)cc1` [Decoy565]: the Type result is “Inactive (Decoy)”.

As to `CC(=O)O[C@@H]1[C@H](O)[C@H](CO)O[C@H](OCC2=CO[C@H](OC(=O)CC(C)C)[C@H]3[C@H]2C[C@H](OC(C)=O)[C@@]3(C)O)[C@@H]1OC(C)=O` [Decoy569], the Type entry is recorded as “Inactive (Decoy)”.

As to `CCC/C=C/[C@@H](C(=O)NCS(=O)(=O)c1ccc(C)cc1)N(CCC)C(=O)c1cc([N+](=O)[O-])ccc1O` [Decoy570], the Type result was “Inactive (Decoy)”.

For `COc1ccc(S(=O)(=O)NNC(=O)CCCCC(=O)NNS(=O)(=O)c2ccc(OC)cc2)cc1` [Decoy571], the Type result is recorded as “Inactive (Decoy)”.

In the case of `O=C(/C=C/c1ccc(O)c2c1[C@@H](C(=O)O[C@@H](Cc1ccc(O)c(O)c1)C(=O)O)[C@H](c1ccc(O)c(O)c1)O2)O[C@H](Cc1ccc(O)c(O)c1)C(=O)O` [Decoy572], the Type entry was “Inactive (Decoy)”.

In the case of `COCCCNC(=O)C(=O)N/N=C/c1cc(I)c(OCC(=O)Nc2cccc(C(F)(F)F)c2)c(OC)c1` [Decoy573], the Type entry was “Inactive (Decoy)”.
